Measured values reported in publication PMC7828447, “Design, Synthesis and Biological Evaluation of Arylpyridin-2-yl Guanidine Derivatives and Cyclic Mimetics as Novel MSK1 Inhibitors. An Application in an Asthma Model” (Molecules, 2021).
Counter-ions that a name gives are not always drawn. Like-named read-outs stand apart in the source and are kept apart here.

Columns and labels:
[1] = WST-1 cytotoxicity test (cell viability); settings: human, human pulmonary (lung) fibroblasts
Experimental: A WST1 (Roche) reagent assay was used to determine the cytotoxicity of compounds at 24 h of incubation. […] The absorbance was measured at 450 nm.

[2] = target: T1, human synthetic MSK1 (14-438-K, Millipore) (Homo sapiens, UniProt O75582); assay: MSK1 enzymatic inhibition assay (Kinase-Glo luminescence); format: biochemical; settings: for inhibition at 1 µM: compound at 1 µM, read-out: MSK1 % Inhibition 1 µM; for inhibition at 1 µM / inhibition at 10 µM / IC50: ± Standard Deviation (n = 4); for inhibition at 10 µM: compound at 10 µM, read-out: MSK1 % Inhibition 10 µM; for IC50: 8 concentrations 0.03-100 µM, read-out: MSK1 IC50; for MSK1 inhibitory activity (in words): tested at 1 and 10 µM
T1 construct: purchased Millipore 14-438-K
Experimental: All results are summarized in Table 1, Table 2, Table 3, Table 4 and Table 5 and on Figure 4. […]
An orthogonal luminescence-based assay Kinase-Glo® (Promega, Madison, WI, USA) was used to validate the hits, quantifying the amount of the remaining ATP in the solution following the kinase reaction. Enzymatic reactions were performed up to 4h at room temperature in presence of 3 µM ATP. All compounds were tested in quadruplicates at 1 µM and 10 µM. […] Luminescence was measured with EnVision Plate Reader (Perkin Elmer).

IL-6 production = assay: Inhibition of IL-6 production (ELISA) in IL-1β-stimulated primary human lung fibroblasts; settings: for inhibition at 10 µM: read-out: Il-6 % Inhibition 10 µM; for inhibition at 30 µM: read-out: Il-6 % Inhibition 30 µM; for IC50: 0.3-30 µM, n = 4
Experimental: Primary human lung fibroblasts were cultured in DMEM/F-12 medium (Gibco Waltham, MA, USA) complemented with 10% fetal bovine serum (Gibco), penicillin (50 U/mL, Gibco), streptomycin (50 µg/mL, Gibco), L-glutamine (2 mM, Gibco), non-essential amino acids (0.1 mM, Gibco) and insulin (0.12 U/mL, Lilly, Indianapolis, IN, USA) Cells were used at passage 7.

[3] = Homo sapiens, Fibroblast, read-out: Il-6 IC50 (µM), IL-1β stimulation

T1 sequence (O75582 whole entry): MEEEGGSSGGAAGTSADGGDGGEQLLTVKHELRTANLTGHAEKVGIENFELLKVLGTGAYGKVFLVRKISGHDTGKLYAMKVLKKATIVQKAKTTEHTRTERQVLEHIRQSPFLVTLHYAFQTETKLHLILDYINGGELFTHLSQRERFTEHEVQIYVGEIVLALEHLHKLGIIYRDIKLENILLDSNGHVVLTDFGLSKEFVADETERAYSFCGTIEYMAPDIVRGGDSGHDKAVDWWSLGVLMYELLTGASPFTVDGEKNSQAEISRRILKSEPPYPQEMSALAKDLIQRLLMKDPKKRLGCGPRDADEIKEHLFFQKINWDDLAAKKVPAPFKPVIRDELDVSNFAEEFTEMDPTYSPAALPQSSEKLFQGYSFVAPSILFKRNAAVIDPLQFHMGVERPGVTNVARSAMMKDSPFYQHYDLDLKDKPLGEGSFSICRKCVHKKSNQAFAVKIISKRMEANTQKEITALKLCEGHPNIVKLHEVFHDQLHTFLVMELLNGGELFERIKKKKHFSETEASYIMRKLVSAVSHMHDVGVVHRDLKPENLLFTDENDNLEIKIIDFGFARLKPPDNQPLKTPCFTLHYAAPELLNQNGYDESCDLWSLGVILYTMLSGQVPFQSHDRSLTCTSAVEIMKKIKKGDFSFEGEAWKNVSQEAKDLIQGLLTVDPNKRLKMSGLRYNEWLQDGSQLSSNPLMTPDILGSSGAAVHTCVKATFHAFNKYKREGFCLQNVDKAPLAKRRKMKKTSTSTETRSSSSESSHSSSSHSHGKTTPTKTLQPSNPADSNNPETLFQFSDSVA

inhibition at 1 µM [2]	inhibition at 10 µM [2]	IC50 [2]	melting point	MSK1 inhibitory activity (in words) [2]	Structure (SMILES)	viability at 24 h, 10 µM [1]	viability at 24 h, 30 µM [1]	inhibition at 10 µM (IL-6 production; Homo sapiens, Fibroblast)	inhibition at 30 µM (IL-6 production; Homo sapiens, Fibroblast)	IC50 (IL-6 production; [3])	IC50 (IL-6 production; read-out: Il-6 IC50, IL-1β stimulation)
5 ± 3%	46 ± 6%	3.6 ± 0.5 µM			Nc1nc2c(-c3ccccc3)cccc2[nH]1 [Compound 49a, 4-Phenyl-1H-benzo[d]imidazol-2-amine hydrobromide]	93 ± 17%	91 ± 15%	12 ± 4%	22 ± 1%	> 30 µM	
	33 ± 8%	> 30 µM	219 to 221 °C		N=C(N)Nc1cccc(-c2ccoc2)n1.O=C(O)C(F)(F)F [Compound 1g, 1-[6-(Furan-3-yl)pyridin-2-yl] guanidinium trifluoroacetate]						
	1 ± 6%		269 to 270 °C	totally inactive	N=C(N)Nc1cccc(-c2cc3ccccc3o2)n1.O=C(O)C(F)(F)F [Compound 1h, 1-[6-(1-Benzofuran-2-yl)pyridin-2-yl] guanidinium trifluoroacetate]						
50 ± 10%	82 ± 10%				O=S(=O)(c1cccc2cnccc12)N1CCCNCC1 [Fasudil, fasudil, reference compound]			38 ± 6%	81 ± 6%	8.5 ± 5.1 µM	
4 ± 2%	38 ± 9%	8.1 ± 1.2 µM	157 to 158 °C		N=C(N)Nc1cccc(-c2ccccc2C(F)(F)F)n1.O=C(O)C(F)(F)F [Compound 1m, 1-[6-(2-Trifluoromethylphenyl)pyridin-2-yl] guanidinium trifluoroacetate]						
80 ± 8%	93 ± 10%	0.25 ± 0.06 µM			O=S(=O)(NCCNC/C=C/c1ccc(Br)cc1)c1cccc2cnccc12 [Compound H89, H89, reference compound]			38 ± 5%	96 ± 1%	10.5 ± 5.1 µM	
6 ± 3%	61 ± 5%	6.8 ± 0.8 µM	202 to 205 °C		Br.Nc1nc2c(-c3cc(Cl)ccc3Cl)cccc2[nH]1 [Compound 49f, 4-(2,5-Dichlorophenyl)-1H-benzo[d]imidazol-2-amine Hydrobromide]						
-5 ± 4%	10 ± 7%		228 to 230 °C		Br.NC1=Nc2cccc(-c3cccc(Cl)c3)c2CN1 [Compound 37d, 5-(3-Chlorophenyl)-3,4-dihydroquinazolin-2-amine Hydrobromide]						
-14 ± 3%	-5 ± 1%		226 to 229 °C		Br.COc1ccccc1-c1cccc2c1CNC(N)=N2 [Compound 37g, 5-(2-Methoxyphenyl)-3,4-dihydroquinazolin-2-amine Hydrobromide]						
-19 ± 1%	44 ± 1%	15.8 ± 3.2 µM			NC1=Nc2cccc(-c3ccccc3)c2CN1 [Compound 37a]	122 ± 14%	103 ± 5%	18 ± 7%	23 ± 6%	> 30 µM	> 30 µM
0%	2 ± 3%		70 to 72 °C	inactivity	CCCNC1=Nc2cccc(-c3ccccc3)c2CN1 [Compound 60a]						
-6 ± 2%	-1 ± 5%		248 to 249 °C	inactive	N=C(N)Nc1cccc(-c2ccc(C(F)(F)F)cc2)n1.O=C(O)C(F)(F)F [Compound 1c, 1-[6-(4-Trifluoromethylphenyl)pyridin-2-yl] guanidinium trifluoroacetate]						
7 ± 3%	71 ± 13%	2.3 ± 0.3 µM	190 to 191 °C		N=C(N)Nc1cccc(-c2cccc(Cl)c2Cl)n1.O=C(O)C(F)(F)F [Compound 1o, 1-[6-(2,3-Dichlorophenyl)pyridin-2-yl] guanidinium trifluoroacetate]						
